Data from publication PMC9035832, “Synthesis and Evaluation of a Non-Peptide Small-Molecule Drug Conjugate Targeting Integrin αVβ3” (Frontiers in Chemistry, 2022).
Numbered stars: 1 amine (or outer) side, 2 acyl side, 3 side chain; on linkers, the order of the positions; unused ones are H or OH. Bridge positions count the residues as written; N and C are the ends. Square brackets hold non-standard residues; d marks the D form. Peptide text beside a SMILES is read from it. I, II: the chains in the order shown. * marks the point of attachment. Dolaproine = CO[C@@H]([C@@H]1CCCN1)[C@@H](C)C(=O)O; Dil = CC[C@H](C)[C@H](NC)[C@@H](CC(=O)O)OC; X1 = O=C(CCCc1cn(CCOCCOCCN[*:1])nn1)[*:2]; PABC = O=C(OCc1ccc(N[*:1])cc1)[*:2]; X2 = C[C@@H](N*)[C@@H](O)c1ccccc1; Suc = O=C(CCC(=O)[*:2])[*:1]; NMeV = CN[C@H](C(=O)O)C(C)C

Experiments:
WM115 cells [1] = experiment: Cell adhesion assay on vitronectin, αVβ3-positive cells; assay type: cell-based; details: adhesion of WM115 cells to vitronectin
Description: WM115 cells were cultivated and used in the MEM Eagle medium (Pan Biotech P04-08500 with 10% fetal bovine serum, 50 μg/ml gentamycin, and 0.5 mM sodium pyruvate) and M21-L cells in the RPMI medium (Pan Biotech P04-16500 with 10% fetal bovine serum, 1% Pen-Strep). A flat-bottom MaxiSorp Nunc 96-well plate was coated with recombinant human vitronectin (100 µl/well, 1 μg/ml, Peprotech) in the PBS buffer (137 mM NaCl, 2.7 mM KCl, 10 mM Na2HPO4, 2 mM KH2PO4, pH 7.4) at 4°C and blocked at the following day by adding a solution of fatty acid free milk powder in PBS buffer (5 w/v %, 100 µl/well) at 4°C. The WM115 and M21-L cells were washed with the PBS buffer, detached with Accutase solution (5 ml, Pan Biotech P10-21100) at 37°C for 5 min, and then diluted with the medium (15 ml). After centrifugation (850 rpm, 6 min), the resulting cell pellet was resuspended with fluorescein diacetate in the medium (fluorescein diacetate 1.5 mg/ml, cell density 5·× 10^5 cells/ml) and incubated for 30 min at 37°C in the dark. The cells were washed twice with the medium and then resuspended in the medium (cell density 5 × 10^5 cells/ml). Afterward, a solution of CaCl2, MnCl2, and MgCl2 (each 100 mM) in the PBS buffer (90 µl) was transferred to the cells and incubated for 30 min on ice in the dark. In the meantime, a dilution series of the compounds in the medium (1:3 dilution) was prepared, and 240 µl were transferred to Eppendorf tubes. Pure medium was used as a positive control. Cell suspension (240 µl) was added to each tube of the dilution series and the control, followed by incubation at 37°C for 30 min in the dark. The assay plate was discharged and washed with 200 µl/well medium. […] Afterward, the assay plate was washed with the medium (3 × 100 µl/well), and finally, the medium (100 µl/well) was added and the fluorescence was measured with a TecanReader (Excitation: 480 nm; Emission: 520 nm). The determined values were plotted and analyzed using OriginPro® 2020b where the inflection point of a DoseResp fit described the IC50 value. […]

M21-L cells = experiment: Cell adhesion assay on vitronectin, αVβ3-negative cells; assay type: cell-based; details: for IC50: adhesion of M21-L cells to vitronectin, read-out: M21-L (αV−, αVβ3−) IC50, cell adhesion
Description: WM115 cells were cultivated and used in the MEM Eagle medium (Pan Biotech P04-08500 with 10% fetal bovine serum, 50 μg/ml gentamycin, and 0.5 mM sodium pyruvate) and M21-L cells in the RPMI medium (Pan Biotech P04-16500 with 10% fetal bovine serum, 1% Pen-Strep). A flat-bottom MaxiSorp Nunc 96-well plate was coated with recombinant human vitronectin (100 µl/well, 1 μg/ml, Peprotech) in the PBS buffer (137 mM NaCl, 2.7 mM KCl, 10 mM Na2HPO4, 2 mM KH2PO4, pH 7.4) at 4°C and blocked at the following day by adding a solution of fatty acid free milk powder in PBS buffer (5 w/v %, 100 µl/well) at 4°C. The WM115 and M21-L cells were washed with the PBS buffer, detached with Accutase solution (5 ml, Pan Biotech P10-21100) at 37°C for 5 min, and then diluted with the medium (15 ml). After centrifugation (850 rpm, 6 min), the resulting cell pellet was resuspended with fluorescein diacetate in the medium (fluorescein diacetate 1.5 mg/ml, cell density 5·× 10^5 cells/ml) and incubated for 30 min at 37°C in the dark. The cells were washed twice with the medium and then resuspended in the medium (cell density 5 × 10^5 cells/ml). Afterward, a solution of CaCl2, MnCl2, and MgCl2 (each 100 mM) in the PBS buffer (90 µl) was transferred to the cells and incubated for 30 min on ice in the dark. In the meantime, a dilution series of the compounds in the medium (1:3 dilution) was prepared, and 240 µl were transferred to Eppendorf tubes. Pure medium was used as a positive control. Cell suspension (240 µl) was added to each tube of the dilution series and the control, followed by incubation at 37°C for 30 min in the dark. The assay plate was discharged and washed with 200 µl/well medium. Then the cell suspension with different compound concentrations was added to the assay plate (100 µl/well) and incubated for 60 min at 37°C in the dark. Afterward, the assay plate was washed with the medium (3 × 100 µl/well), and finally, the medium (100 µl/well) was added and the fluorescence was measured with a TecanReader (Excitation: 480 nm; Emission: 520 nm). The determined values were plotted and analyzed using OriginPro® 2020b where the inflection point of a DoseResp fit described the IC50 value.
WM115 cells were cultivated and used in MEM Eagle medium (Pan Biotech P04-08500 with 10 % foetal bovine serum, 50 µg/mL gentamycin, 0.5 mM sodium pyruvate) and M21-L cells in RPMI medium (Pan Biotech P04-16500 with 10 % foetal bovine serum, 1 % Pen-Strep). Overnight a flat-bottom MaxiSorp Nunc 96-well plate was coated with recombinant human vitronectin (100 µL/well, 1 µg/mL, Peprotech) in PBS buffer (137 mM NaCl, 2.7 mM KCl, 10 mM Na2HPO4,2 mM KH2PO4, pH 7.4) at 4 °C and blocked at the following day by adding a solution of fatty acid free milk powder in PBS buffer (5 w/v %, 100 µL/well) at 4 °C. […]

WM115 cells [2] = experiment: Cell viability assay (resazurin based); details: for IC50: 3 days incubation, resazurin, read-out: Cytotoxicity IC50; for fold less cytotoxic than MMAE: relative to free MMAE
Description: (§1) WM115 cells were cultivated in the MEM medium (with 10% fetal bovine serum, 50 μg/ml gentamycin, and 0.5 mM sodium pyruvate) at 37°C and 5.3% CO2-humidified air in an incubator. The cells were seeded in a sterile flat-bottom cell culture 96-well plate (Sarstedt) in a density of 10,000 cells/well (100 µl/well) and incubated for 1 day as described. A serial dilution (1:3 dilution) of the compounds and the standard (cryptophycin-52) in the medium was prepared and transferred to the assay plate (100 µl/well), followed by incubation for 3 days as described. Afterward, a solution of resazurin (175 μM, 30 µl/well) was added, followed by incubation for 6 h. Subsequently, the fluorescence was measured with a TecanReader (Excitation: 530 nm; Emission: 588 nm) and plotted and analyzed using OriginPro® 2020b where the inflection point of a DoseResp fit described the IC50 value. […]
(§2) WM115 cells were cultivated in MEM medium (with 10 % foetal bovine serum, 50 µg/mL gentamycin, 0.5 mM sodium pyruvate) at 37 °C and 5.3 % CO2-humidified air in an incubator. The cells were seeded in a sterile flat-bottom cell culture 96-well plate (Sarstedt) in a density of 10000 cells/well (100 µL/well) and incubated for 1 day as described. A dilution series (1:3 dilution) of the compounds and the standard (cryptophycin-52) in medium was prepared and transferred to the assay plate (100 µL/well) followed by incubation for 3 d as described. Afterwards a solution of resazurin (175 µM, 30 µL/well) was added followed by incubation for 6 h. Subsequently, the fluorescence was measured with a TecanReader (Excitation: 530 nm; Emission: 588 nm) as well as plotted and analysed using OriginPro® 2020b where the inflection point of a DoseResp fit describes the IC50 value.

[3] = Cell viability assay (resazurin based); details: WM115 cells, 3 days incubation, resazurin; read-out: Cytotoxicity IC50
Description: as §1, §2

Structure (SMILES) | IC50 (WM115 cells [1]) [µM] | IC50 (M21-L cells) [µM] | IC50 (WM115 cells [2]) [µM] | fold less cytotoxic than MMAE (WM115 cells [2]) | effect on cell adhesion of αVβ3-negative cells (M21-L cells; M21-L cell line, adhesion to vitronectin) | IC50 [3] [µM] | TI (RAD/RGD), targeting index (WM115 cells [2]; TI = [IC50 (17)]/[IC50 (compound)])
CC[C@H](C)[C@@H]([C@@H](CC(=O)N1CCC[C@H]1[C@H](OC)[C@@H](C)C(=O)N[C@H](C)[C@@H](O)c1ccccc1)OC)N(C)C(=O)[C@@H](NC(=O)[C@H](C(C)C)N(C)C(=O)OCc1ccc(NC(=O)[C@H](C)NC(=O)[C@@H](NC(=O)[C@H](CCC(=O)O)NC(=O)CCCc2cn(CCOCCOCCNC(=O)CCC(=O)NCCCC[C@@H]3NC(=O)[C@@H](Cc4ccccc4)NC(=O)[C@H](CC(=O)O)NC(=O)CNC(=O)[C@H](CCCNC(=N)N)NC3=O)nn2)C(C)C)cc1)C(C)C [compound 16] | 2.65 ± 0.35 | > 100 | 0.0914 ± 0.0123 | about 50 fold | – | – | –
CC[C@H](C)[C@@H]([C@@H](CC(=O)N1CCC[C@H]1[C@H](OC)[C@@H](C)C(=O)N[C@H](C)[C@@H](O)c1ccccc1)OC)N(C)C(=O)[C@@H](NC(=O)[C@H](C(C)C)N(C)C(=O)OCc1ccc(NC(=O)[C@H](C)NC(=O)[C@@H](NC(=O)[C@H](CCC(=O)O)NC(=O)CCCc2cn(CCOCCOCCNC(=O)CCC(=O)NCCCC[C@@H]3NC(=O)[C@@H](Cc4ccccc4)NC(=O)[C@H](CC(=O)O)NC(=O)[C@H](C)NC(=O)[C@H](CCCNC(=N)N)NC3=O)nn2)C(C)C)cc1)C(C)C [compound 17] (I: [X1]EVA[PABC][NMeV]V[Dil][Dolaproine]-X2 / II: cyclo(AD[dF]KR); linker I:N-II:4 via Suc) | 79.1 ± 1.69 | > 100 | 0.264 ± 0.0246 | 150 fold | – | – | –
CC[C@H](C)[C@@H]([C@@H](CC(=O)N1CCC[C@H]1[C@H](OC)[C@@H](C)C(=O)N[C@H](C)[C@@H](O)c1ccccc1)OC)N(C)C(=O)[C@@H](NC(=O)[C@H](C(C)C)N(C)C(=O)OCc1ccc(NC(=O)[C@H](C)NC(=O)[C@@H](NC(=O)[C@H](CCC(=O)O)NC(=O)CCCc2cn(CCOCCOCCOc3ccc(C(=O)N[C@@H](Cc4ccc(OCCCCCNC5=NCCN5)cc4)C(=O)O)cc3)nn2)C(C)C)cc1)C(C)C [compound 18] | 8.05 ± 0.51 | > 100 | – | about 50 fold | no effect | 0.095 ± 0.025 | 2.8
